Test results from publication PMC8739347 (Tropical Medicine and Health, 2022).

Tests used:
[1] = tested on: SARS-CoV-2 original Wuhan strain (hCoV-19/Japan/TY/WK-521,2019); assay: Antiviral activity assay in Vero E6 cells, qRT-PCR of supernatant; format: cell-based; conditions: Severe acute respiratory syndrome coronavirus 2, Vero C1008, Vero E6, 72 h pretreatment, MOI 0.02, 48 h pi, compound concentration (for 5-ALA/SFC the 5-ALA concentration, ratio 4:1)
[2] = tested on: SARS-CoV-2; parameters: method as in PMID 31781665; conditions: SFC only; cited from earlier work
[3] = parameters: method as in PMID 11961050; conditions: oral route; cited from earlier work
[4] = Cell viability assay (MTT); format: cell-based; conditions: African green monkey, Vero E6 cells; Vero E6, 3 days, in parallel with Delta antiviral assay; 5-ALA concentration
Experimental: (§1) Vero E6 cells in 96-well plates were treated with samples for 3 days, and a cell viability assay was conducted in parallel with an antiviral assay. To determine the concentration that triggered a 50% reduction in cell survival (CC50), the results of the cell viability assay were evaluated by 3-(4,5-dimethylthiazol-2-yl)-2,5-diphenyl tetrazolium bromide according to the manufacturer’s instructions (Promega, Madison, WI, USA). Optical density was measured at 570 nm using a microplate reader (Synergy H1 M; BioTek Instruments, Winooski, VT, USA). Cell viability was determined using the following equation: cell viability (%) = (sample value)/(cell control) × 100. In addition, viral inhibition by 50% (IC50) was calculated as viral inhibition (%) = quantity of virus copies in (virus control − sample)/virus control × 100.

[5] = tested on: Vero E6 cells; assay: Cell viability assay (MTT); format: cell-based; conditions: Vero E6, 3 days, 5-ALA concentration
Experimental: as §1

Molecule	IC50 [1] [µM]	antiviral activity [2]	bioavailability [3]	CC50 at 3 days [4] [µM]	CC50 ([5]; in parallel with Alpha antiviral assay) [µM]	CC50 ([5]; in parallel with Beta antiviral assay) [µM]	CC50 ([5]; in parallel with Gamma antiviral assay) [µM]	CC50 ([5]; in parallel with Wuhan antiviral assay) [µM]
CCC(CC)COC(=O)[C@H](C)N[P@](=O)(OC[C@H]1O[C@@](C#N)(c2ccc3c(N)ncnn23)[C@H](O)[C@@H]1O)Oc1ccccc1 [remdesivir, Remdesivir]	0.1 to 1	–	–	–	–	–	–	–
Sodium ferrous citrate [SFC]	–	did not show antiviral activity	–	–	–	–	–	–
NCC(=O)CCC(=O)O [5-ALA, 5-aminolevulinic acid]	207	–	high bioavailability	> 2000	> 2000	> 2000	> 2000	> 2000
